{
  "source": "patent US20250221953A1",
  "about": "(The University of Chicago, priority 2022, published 2025)",
  "key": {"B16F10 tumor": {"system": "B16F10 tumor", "test": "Mouse tumor model, B16F10", "format": "in vivo", "conditions": "B16F10 tumor-bearing C57BL/6 mice on enriched diet vs control diet", "method": "For C57BL/6 mice and TCR-a KO mice tumor model, mice were anesthetized with isoflurane, shaved the injection site, and then injected subcutaneously in the abdominal flank with 1×10^5 B16F10, MC38, or LLC1 cells, or in the mammary gland with 2×10^5 E0771 cells. C57BL/6 nude mice were injected subcutaneously in the abdominal flank with 1×10^5B16F10 cells. […] Tumors were measured the tumors using a caliper every 2-3 days. Tumor volumes were calculated using the following formula: length×width×[(length×width)^0.5]×π/6. Mice were euthanized at humane endpoints or day 11-15 for tissue collection.\nThe mice were treated once a day for 5 consecutive days per week for 2 weeks. Tumors were measured the tumors using a caliper every 2-3 days. Tumor volumes were calculated using the following formula: length×width×[(length×width)^0.5]×π/6. Mice were euthanized at humane endpoints.\nFor anti-PD-1 treatment mouse model, 6-8 weeks old C57BL/6 mice were anesthetized with isoflurane, shaved the injection site, and then injected subcutaneously in the abdominal flank with 1×10^5 B16F10 for tumor development. […] In day 3, 6, 9, 12, and 15, 250 μg anti-PD-1 (BioXCell) or IgG control (BioXCell) was injected intraperitoneally per mouse. Tumors were measured the tumors using a caliper every 2-3 days. Tumor volumes were calculated using the following formula: length×width×[(length×width)^0.5]×π/6. […]"}, "[1]": {"system": "mouse primary CD8^+ T cells", "test": "In vitro function of activated mouse primary CD8+ T cells (cytokines, Ki-67, apoptosis, p-CREB)", "format": "cell-based", "conditions": "for effect of inhibitor/modulator on TVA-enhanced activation of CD8+ T cells (IL-2, TNF-α, IFN-γ): added synchronized with 20 μM TVA for 24 hours, SCH-202676 200 nM, H-89 200 nM, 666-15 100 nM", "description": "For experiments with live/dead criteria, cells were first stained with Fixable Viability Dyes (FVD) (Thermo Fisher Scientific) according to the manufacturer's instructions. Subsequent surface marker staining was performed in Flow Cytometry Staining Buffer (Thermo Fisher Scientific). Intracellular staining for flow panels containing nuclear proteins was performed using the eBioscience FoxP3/Transcription Factor Staining Buffer Set (Thermo Fisher Scientific) according to the manufacturer's instructions. For intracellular staining of cytoplasmic proteins, the Fixation/Permeabilization Solution Kit (BD Biosciences) was used according to the manufacturer's instructions. […] The cell pellets were washed again with FACS buffer, centrifuged at 300×g for 5 minutes, and incubated with antibodies in FACS buffer for 45 minutes-1 hour at room temperature. […] Treatment with sulfosuccinimidyl oleate (SSO) was performed by incubating cells with 100 μM SSO for 24 hours."}, "Jurkat T cells": {"system": "Jurkat T cells", "format": "cell-based, human", "conditions": "IL-2 production level in treated group compared to control group; 48 hours treatment, then anti-CD3/anti-CD28 12 hours"}, "Mouse T cell": {"system": "Mouse T cell", "test": "Second screen: IL-2 level of murine primary T cells", "format": "cell-based", "text": "Two preliminary screens were designed and performed."}, "Mouse CD4^+ T cell": {"system": "Mouse CD4^+ T cell", "test": "Second screen: IL-2 level of mouse CD4+ T cells"}, "Mouse CD8^+ T cell": {"system": "Mouse CD8^+ T cell", "test": "Second screen: IL-2 level of mouse CD8+ T cells"}, "[2]": {"system": "mouse primary CD8^+ T cells", "test": "13C1-TVA metabolic flux analysis by GC-MS", "format": "cell-based", "conditions": "100 μM SSO, 24 hours", "method": "Samples were kept at room temperature after centrifugation to form two distinct phases. 650 μL of the bottom dichloromethane fraction was transferred into a new glass tube and dried with nitrogen gas to obtain a lipid fraction pellet. […] FAME cleanup was applied if analyzing animal tissues (FAME Cleanup: a Florisil column was pre-conditioned with 3 mL of hexane, added methyl ester, and eluted twice with 1 mL isohexane-diethyl ether (95:5 v/v), with drying down in between elutions). Otherwise, samples were dried down under nitrogen and re-suspended in 50 μL of hexane to load onto gas chromatography (GC) mass spectrometry (MS). […] Metabolite levels and mass isotopomer distributions of derivatized fragments were analyzed with an in-house MATLAB script, which integrated the metabolite fragment ions and corrected for natural isotope abundances."}, "[3]": {"system": "B cell acute lymphoblastic leukemia (B-ALL)", "conditions": "Kantarjian et al., 2017; cited from earlier work"}, "[4]": {"system": "mouse melanoma B16 cells with CD8+ T cells", "test": "CD8+ T cell mediated killing of B16 cells in vitro", "format": "cell-based"}, "[5]": {"system": "murine melanoma B16 cells", "test": "Oral gavage in syngeneic mice inoculated with B16 cells", "format": "in vivo, mouse"}},
  "data": [
    {"compound": "CCCCCC/C=C\\CCCCCCCCCC(=O)O", "note": "[CVA, cis-Vaccenic acid, reference compound]", "values": [
      {"measurement": "body weights of mice", "setting": "B16F10 tumor", "value": "did not alter body weights"}
    ]},
    {"compound": "Cl.Cl.O=S(=O)(NCCNC/C=C/c1ccc(Br)cc1)c1cccc2cnccc12", "note": "[Compound H89, H 89 Dihydrochloride, reference compound]", "values": [
      {"measurement": "effect of inhibitor/modulator on TVA-enhanced activation of CD8+ T cells (IL-2, TNF-α, IFN-γ)", "setting": "[1]", "value": "similarly abolishes TVA-enhanced activation of CD8^+ T cells"}
    ]},
    {"compound": "OC[C@H]1OC(O)[C@H](O)[C@@H](O)[C@H]1O", "note": "(stereo partly drawn) [D(+)-GALACTOSE ANHYDROUS]", "values": [
      {"measurement": "Relative changed percentage (%)", "setting": "Jurkat T cells", "value": 35.84, "unit": "%"},
      {"measurement": "Mouse T cell IL-2 level changes after treatment", "setting": "Mouse T cell", "value": 130.1, "unit": "%"},
      {"measurement": "Mouse CD4^+ T cell IL-2 level changes after treatment", "setting": "Mouse CD4^+ T cell", "value": 110.4, "unit": "%"},
      {"measurement": "Mouse CD8^+ T cell IL-2 level changes after treatment", "setting": "Mouse CD8^+ T cell", "value": 130.3, "unit": "%"}
    ]},
    {"compound": "Nc1nc2nc[nH]c2c(=O)[nH]1", "note": "[GUANINE]", "values": [
      {"measurement": "Relative changed percentage (%)", "setting": "Jurkat T cells", "value": 15.14, "unit": "%"},
      {"measurement": "Mouse T cell IL-2 level changes after treatment", "setting": "Mouse T cell", "value": 148.6, "unit": "%"},
      {"measurement": "Mouse CD4^+ T cell IL-2 level changes after treatment", "setting": "Mouse CD4^+ T cell", "value": 110.4, "unit": "%"},
      {"measurement": "Mouse CD8^+ T cell IL-2 level changes after treatment", "setting": "Mouse CD8^+ T cell", "value": 150.8, "unit": "%"}
    ]},
    {"compound": "Br.CN=c1nc(-c2ccccc2)n(-c2ccccc2)s1", "note": "[SCH 202676 hydrobromide, reference compound]", "values": [
      {"measurement": "effect of inhibitor/modulator on TVA-enhanced activation of CD8+ T cells (IL-2, TNF-α, IFN-γ)", "setting": "[1]", "value": "abolishes TVA-enhanced activation of CD8^+ T cells"}
    ]},
    {"compound": "CCCCCCCC/C=C\\CCCCCCCC(=O)ON1C(=O)CC(S(=O)(=O)O)C1=O", "note": "(stereo not shown) [SSO, sulfosuccinimidyl oleate, reference compound]", "values": [
      {"measurement": "effect of SSO on TVA-dependent CD8+ T cell activation", "setting": "[1]; 100 μM SSO, TNF-α, IFN-γ", "value": "does not affect TVA-dependent CD8^+ T cell activation"},
      {"measurement": "effect on import of 13C-TVA into CD8+ T cells", "setting": "[2]", "value": "drastically reduced import of ^13C-TVA"}
    ]},
    {"compound": "Cc1cn([C@H]2C[C@H](O)[C@@H](CO)O2)c(=O)[nH]c1=O", "note": "[THYMIDINE]", "values": [
      {"measurement": "Relative changed percentage (%)", "setting": "Jurkat T cells", "value": 39.63, "unit": "%"},
      {"measurement": "Mouse T cell IL-2 level changes after treatment", "setting": "Mouse T cell", "value": 145.6, "unit": "%"},
      {"measurement": "Mouse CD4^+ T cell IL-2 level changes after treatment", "setting": "Mouse CD4^+ T cell", "value": 135.8, "unit": "%"},
      {"measurement": "Mouse CD8^+ T cell IL-2 level changes after treatment", "setting": "Mouse CD8^+ T cell", "value": 128.9, "unit": "%"}
    ]},
    {"compound": "CC(=O)O", "note": "[acetate, reference compound]", "values": [
      {"measurement": "enhanced CD8+ T cell activation by pre-treatment with 20 μM TVA (TVA first)", "setting": "[1]; TVA 12 hours, then 20 mM acetate 12 hours", "value": "cannot be reversed by 20 mM acetate"},
      {"measurement": "CD8+ T cell activation (TNF-α, IFN-γ levels)", "setting": "[1]; increasing concentrations of acetate up to 20 mM", "value": "attenuate CD8^+ T cell activation"}
    ]},
    {"compound": "Nc1ccc(C(=O)O)cc1", "note": "[p-Aminobenzoic Acid]", "values": [
      {"measurement": "Mouse T cell IL-2 level changes after treatment", "setting": "Mouse T cell", "value": 160.3, "unit": "%"},
      {"measurement": "Mouse CD4^+ T cell IL-2 level changes after treatment", "setting": "Mouse CD4^+ T cell", "value": 140.5, "unit": "%"},
      {"measurement": "Mouse CD8^+ T cell IL-2 level changes after treatment", "setting": "Mouse CD8^+ T cell", "value": 145.2, "unit": "%"}
    ]},
    {"compound": "Blinatumomab: bi-specific T-cell engager (BiTE) targeting CD19 antigen on B cells and CD3 on T cells", "values": [
      {"measurement": "response rate in relapsed disease", "setting": "[3]", "value": "< 50", "unit": "%"}
    ]},
    {"compound": "C-PEPTIDE FRAGMENT 3-33, HUMAN/C-peptide [#203]", "values": [
      {"measurement": "CD8+ T cells mediated killing of mouse melanoma B16 cells", "setting": "[4]", "value": "enhances CD8+ T cells mediated killing of mouse melanoma B16 cells"},
      {"measurement": "killing and CD8 T cell function compared with TVA", "setting": "[4]", "value": "better than cells treated with TVA"},
      {"measurement": "anti-tumor immunity", "setting": "[5]", "value": "increased anti-tumor immunity in a dose dependent manner"}
    ]},
    {"compound": "D-Glycerate 2,3-diphosphate sodium salt", "values": [
      {"measurement": "Relative changed percentage (%)", "setting": "Jurkat T cells", "value": 47.74, "unit": "%"},
      {"measurement": "Mouse T cell IL-2 level changes after treatment", "setting": "Mouse T cell", "value": 106.2, "unit": "%"},
      {"measurement": "Mouse CD4^+ T cell IL-2 level changes after treatment", "setting": "Mouse CD4^+ T cell", "value": 97.9, "unit": "%"},
      {"measurement": "Mouse CD8^+ T cell IL-2 level changes after treatment", "setting": "Mouse CD8^+ T cell", "value": 121.4, "unit": "%"}
    ]},
    {"compound": "THYROCALCITONIN SALMON/calcitonin", "values": [
      {"measurement": "Relative changed percentage (%)", "setting": "Jurkat T cells", "value": 11.37, "unit": "%"}
    ]},
    {"compound": "Tricalcium phosphate hydrate", "values": [
      {"measurement": "Relative changed percentage (%)", "setting": "Jurkat T cells", "value": 51.49, "unit": "%"}
    ]},
    {"compound": "VASOACTIVE INTESTINAL PEPTIDE", "values": [
      {"measurement": "Relative changed percentage (%)", "setting": "Jurkat T cells", "value": 1.0212, "unit": "%"}
    ]},
    {"compound": "XANTHOPHYLL FROM MARIGOLD", "values": [
      {"measurement": "Relative changed percentage (%)", "setting": "Jurkat T cells", "value": 7.531, "unit": "%"}
    ]},
    {"compound": "ZINC SULFATE HEPTAHYDRATE", "values": [
      {"measurement": "Relative changed percentage (%)", "setting": "Jurkat T cells", "value": 1.046, "unit": "%"}
    ]},
    {"compound": "Zinc Picolinate", "values": [
      {"measurement": "Relative changed percentage (%)", "setting": "Jurkat T cells", "value": 5.492, "unit": "%"}
    ]},
    {"compound": "androsterone [AN[…],/androsterone]", "values": [
      {"measurement": "Relative changed percentage (%)", "setting": "Jurkat T cells", "value": 15.91, "unit": "%"}
    ]}
  ]
}
